“Also recorded” adds a separate entry of the source.
What was measured:
[1] = target: T1, murine FSP1 (Mus musculus, UniProt Q8BUE4); test: In vitro FSP1 oxidoreductase (NADH consumption) assay, murine FSP1; assay type: biochemical; details: resazurine or coQ1 as electron acceptor
T1 construct: His6 (N, cleaved yes); made in house; host or cells: Escherichia coli BL21 pG-Tf2
T1 sequence (Q8BUE4 1-373): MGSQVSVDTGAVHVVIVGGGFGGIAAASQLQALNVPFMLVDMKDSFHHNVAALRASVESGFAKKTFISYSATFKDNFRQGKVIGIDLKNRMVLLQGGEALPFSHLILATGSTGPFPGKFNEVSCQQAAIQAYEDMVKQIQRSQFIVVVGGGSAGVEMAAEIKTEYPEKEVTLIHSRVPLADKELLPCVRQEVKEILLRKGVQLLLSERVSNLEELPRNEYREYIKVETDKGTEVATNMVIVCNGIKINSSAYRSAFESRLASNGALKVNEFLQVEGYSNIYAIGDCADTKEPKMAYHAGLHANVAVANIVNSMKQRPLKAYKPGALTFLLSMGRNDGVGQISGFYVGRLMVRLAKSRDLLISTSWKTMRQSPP
Experimental: FSP1 activity assays were performed using recombinant, purified murine or human FSP1, NADH, and resazurine or coenzyme-Q1 (coQ1) as electron acceptor molecules. The following conditions were used: 200 μM resazurine were reduced with 750 nM mFSP1 or 150 nM hFSP1; 100 μM coQ1 was reduced with 400 nM mFSP1; and 137 μM coQ1 were reduced with 200 nM hFSP1. The consumption of NADH (500 μM) was measured at 340 nm in phosphate-buffered saline (80 mM Na3PO4, 300 mM NaCl; pH 7.0) at room temperature on a CLARIOstar microplate reader (BMG Labtech). Initial rates were determined, and data were fitted by linear regression using GraphPad Prism software, version 9.1.2.
In order to determine inhibition of FSP1 by CPBA, FSP1 activity was measured […] either CPBA or iFSP1 as a positive control. In vitro FSP1 oxidoreductase activity assays were performed using recombinant, purified murine or human FSP1, NADH, and resazurine or coenzyme-Q1 (coQ1) as electron acceptor molecules as described above (see FIG. 19).
In vitro FSP1 activity assays with human (see FIG. 22 C) or murine (see FIG. 22 D) FSP1 were performed as described above. Shown are NADH consumption assays using recombinant, purified human or mouse FSP1 (hFSP1, mFSP1) and resazurine or coenzyme-Q1 (CoQ1) as electron acceptor molecules.

[2] = tested on: cancer cell lines; test: FIN56 toxicity in a panel of cancer cell lines; assay type: cell-based, human, mouse, rat
Description: Cell culture media and supplements were from Thermo Fisher Scientific, unless specified otherwise. Mouse embryonic fibroblasts (MEFs) were generated from Pgp-wildtype (Pgp^fl/fl) or heterozygous Pgp-inactivated mouse embryos (Pgp^fl/D34N) as described (Segerer et al., 2016). Human embryonic kidney HEK-AD293 (HEK293) cells (Stratagene), HT-1080 human fibrosarcoma cells, PC3 and Du145 human prostate carcinoma cells, HepG2 human hepatocytic carcinoma (HCC) cells, Hepa 1-6 murine HCC, 4T1 mouse breast carcinoma, Colon-26 mouse colon carcinoma, C6 rat glioblastoma and RAW264.7 mouse monocytes/macrophages (all from LGC Standards) were cultured in Dulbecco's modified Eagle's medium (DMEM, 4.5 g/L glucose) supplemented with 10% (v/v) heat-inactivated fetal calf serum (FCS), 2 mM L-glutamine, 100 U/mL penicillin and 100 μg/mL streptomycin (Pen/Strep). Hepa-1c1c7 murine HCC were grown in alpha MEM without nucleosides (Gibco, cat. no. 31095029) supplemented with 10% FCS and Pen/Strep. JTC-27 rat HCC were cultured in RPMI-1640 with 10% FCS and Pen/Strep. […]
Cells were seeded onto 96-well plates (5,000 cells per well), and treated with serial dilutions of ferroptosis-inducing compounds (erastin, BSO, RSL3, FIN56) or cytotoxic drugs (staurosporine, nocodazole, tunicamycin, paclitaxel, etoposide, menadione, rotenone, FCCP, carboplatin) in the absence or presence of CPBA or iFSP1 (100 μM or 10 μM, respectively; unless stated otherwise) or the DMSO solvent control. Ferroptotic cell death was evaluated by incubating in the absence or presence of liproxstatin-1 (100 nM), ferrostatin-1 (200 nM), or deferoxamine (100 μM). Cell viability was assessed after 16 h using AquaBluer as an indicator of viable cells according to the manufacturer's recommendations (MultiTarget Pharmaceuticals, LLC). Fluorescence (excitation, 540 nm; emission, 590 nm) was analyzed on a Clariostar microplater reader. […]

Compound | inhibition of murine FSP1 activity [1] | sensitization of cancer cell lines to FIN56-induced ferroptosis ([2]; CPBA 100 μM, iFSP1 10 μM (3 μM in HepG2), 16 h) | effect in human cancer cell lines ([2]; human cancer cell lines) | effect in mouse or rat cancer cell lines ([2]; mouse or rat cancer cell lines (FIG. 20A))
O=C(Nc1ccccc1C(=O)O)c1ccc(Oc2ccc(C(=O)Nc3ccccc3C(=O)O)cc2)cc1 [CPBA, 2-[[4-[4-[(2-carboxyphenyl)carbamoyl]phenoxy]benzoyl]amino]-benzoic acid] | inhibits human and murine FSP1 activity; also recorded: much more effective inhibition of murine FSP1 by CPBA compared to iFSP1 | sensitizes cancer cell lines of different species and tumor types to ferroptosis |  | 
Cc1ccc(-c2c(C#N)c(N)n3c(nc4ccccc43)c2C#N)cc1 [iFSP1, reference compound] | has no effect on mFSP1; also recorded: much less active against murine FSP1 |  | able to inhibit endogenous and overexpressed FSP1 in human cancer cell lines, and thereby sensitize these cells to ferroptotic death | completely ineffective in mouse or rat cancer cell lines

Reference: patent US20250064762A1, “A SUBSTITUTED AROMATIC DICARBONIC ACID AMIDE AS AN INHIBITOR OF THE FERROPTOSIS SUPPRESSOR PROTEIN-1 (FSP1)” (JULIUS-MAXIMILIANS-UNIVERSITÄT WÜRZBURG, priority 2021, published 2025)
